Assays:
[1] = tested on: body malodour (axillae of human subjects); experiment: Odour Reduction Value Test (soap bars applied to the axillae of a human panel); type: in vivo; conditions: for Odour Reduction Value: 0 to 5 scale, 5 hours after washing
Method: As has been stated, the ability of toilet soap containing both a deodorant perfume and a deodorant other than a deodorant perfume to reduce body malodour was assessed by an odour reduction value test, somewhat similar to that described by Whitehouse and Carter in Proc. Scientific Section of the Toilet Goods Association, 48, 31 (1967) for the measurement of body odour inhibition by germicides in toilet soap.
The test described in that publication was modified in three ways: firstly a 0 to 5 instead of a 0 to 10 grading scale was employed, secondly grading of odour intensity was performed 5 hours after treatment instead of 24 hours, and thirdly, the concentration of deodorant perfume incorporated in the test detergent product was 1.5% by weight of the product.
In this test, the odour reduction value of a standard soap bar containing a deodorant perfume at a standard concentration is measured by assessing its effectiveness in reducing body malodour when the standard soap bar is used to wash the axillae (armpits) of a panel of human subjects.
Standard soap bars are prepared as follows, all amounts given being by weight.
A soap base there is used a neutral wet sodium soap containing 63% of total fatty matter of which 82% is tallow fatty acid and 18% is coconut oil fatty acid. To a homogeneous mixture of 9000 parts of this soap base and 340 parts of free coconut oil fatty acid at 80° C. are added with mixing, 9.4 parts of a 20% aqueous solution of tetrasodium ethylenediamine tetraacetate, 2.2 parts of a 60% aqueous solution of 1-hydroxyethane-1,1-diphosphonic acid and 7.2 parts of butylated hydroxy toluene (BHT) antioxidant dissolved in a little methylated spirits and the temperature of the mass is raised to 140° C. under superatmospheric pressure. The mass is then sprayed at about 30 mm of mercury, to produce a dried soap composition which is collected and extruded at 30° C. as noodles of about 12% moisture content.
9,770 parts of the soap noodles thus obtained are mixed at ambient temperature with 150 parts of the deodorant perfume to be tested, together with 30 parts of a titanium dioxide opacifier and 50 parts of a colourant suspension. The resulting mixture is milled and stamped into tablets. The deodorant perfume to be tested is therefore present at the standard level of 1.5%.
In other respects, the control bar should only contain those additives conventionally present in personal washing products and for the purpose in the amount conventionally used in the art.
A team of 2 to 4 Caucasian female assessors of age within the range of from 20 to 40 years is selected for olfactory evaluation on the basis that each is able to rank correctly the odour levels of the series of aqueous isovaleric acid solutions listed in Table 2 below, and each is able to detect the reduction in body odour following application to the axillae of human subjects of soap containing 2% germicides, according to the procedure described by Whitehouse and Carter.
A panel of 30 to 50 human subjects for use in the test is assembled from Caucasian male subjects of age within the range of from 20 to 55 years.
For two weeks before the start of a test, the panel subjects are assigned a non-deodorant soap bar for exclusive use of bathing and are denied the use of any type of deodorant or antiperspirant. At the end of this period, the subjects are randomly divided into two groups. The control soap bars are then applied to the left axillae of the first group and the right axillae of the second, and the test soap bars are applied to the right axillae of the first group and the left axillae of the second.
The soap bars are applied by a technician using a standard technique in which a wet flannel is soaped with the soap bar for 15 seconds, the axilla is washed with the soaped flannel for 30 seconds, then wiped with a water rinsed flannel and dried with a clean towel.

[2] = The Morpholine Test (depression of partial vapour pressure of morpholine); conditions: morpholine 0.25 g + perfume material 1 g, 37° C., headspace GC
[3] = biological target: T1, lipoxidase (E.C. 13.1.13) (Glycine max, UniProt P08170); experiment: The Lipoxidase Test (inhibition of linoleic acid oxidation); type: biochemical; conditions: test substrate made with 0.5% by weight solution of the material in ethanol, borate buffer pH 9.0, OD at 234 nm
T1 sequence (P08170 1-839): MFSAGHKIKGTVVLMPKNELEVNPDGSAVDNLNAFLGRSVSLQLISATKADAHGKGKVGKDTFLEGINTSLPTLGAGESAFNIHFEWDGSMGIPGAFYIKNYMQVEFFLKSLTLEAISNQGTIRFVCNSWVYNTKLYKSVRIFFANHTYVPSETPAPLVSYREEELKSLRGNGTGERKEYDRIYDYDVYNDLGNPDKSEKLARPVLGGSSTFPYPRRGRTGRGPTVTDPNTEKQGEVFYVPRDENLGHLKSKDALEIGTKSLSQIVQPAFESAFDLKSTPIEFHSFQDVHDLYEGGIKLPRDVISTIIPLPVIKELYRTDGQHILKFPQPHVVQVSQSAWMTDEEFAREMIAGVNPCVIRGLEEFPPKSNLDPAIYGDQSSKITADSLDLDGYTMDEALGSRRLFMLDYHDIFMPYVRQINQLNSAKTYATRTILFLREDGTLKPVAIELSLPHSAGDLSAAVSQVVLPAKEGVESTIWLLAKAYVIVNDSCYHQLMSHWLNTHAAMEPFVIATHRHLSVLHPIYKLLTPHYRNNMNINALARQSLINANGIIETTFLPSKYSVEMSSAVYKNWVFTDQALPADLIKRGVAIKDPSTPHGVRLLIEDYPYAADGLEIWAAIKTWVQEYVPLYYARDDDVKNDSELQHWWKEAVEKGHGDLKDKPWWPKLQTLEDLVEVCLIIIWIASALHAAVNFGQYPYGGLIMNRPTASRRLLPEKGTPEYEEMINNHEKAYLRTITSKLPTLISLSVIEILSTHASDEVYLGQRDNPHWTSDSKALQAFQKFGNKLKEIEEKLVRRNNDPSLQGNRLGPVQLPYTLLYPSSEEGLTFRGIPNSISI

For `O=C(Nc1ccc(Cl)cc1)Nc1ccc(Cl)c(Cl)c1` [3,3,4'-trichloro-carbanilide, 3,4,4'-trichlorocarbanilide], the “Odour Reduction Value” ([1]; 0.16 wt % germicide in soap bar vs control soap bar without germicide) was 0.10, the “Odour Reduction Value” ([1]; 0.25 wt % germicide in soap bar vs control soap bar without germicide) was 0.14 and the “Odour Reduction Value” ([1]; 0.5 wt % germicide in soap bar vs control soap bar without germicide) was 0.22. For the same molecule, the “Odour Reduction Value” ([1]; 0.75 wt % germicide in soap bar vs control soap bar without germicide) was 0.27, the “Odour Reduction Value” ([1]; 1.0 wt % germicide in soap bar vs control soap bar without germicide) was 0.30 and the “Odour Reduction Value” ([1]; 2.0 wt % germicide in soap bar vs control soap bar without germicide) was 0.37. The “maximum reduction in odour intensity obtainable (odour reduction value)” value ([1]; germicide alone in soap bar, irrespective of the amount of germicide) was at most 0.4.
With `O=C(Cc1ccccc1)OCCc1ccccc1` [Phenylethyl phenylacetate] the “RVR (Raoult variance ratio)” value [2] was 1.22 and the inhibition at 0.5 % strength ([3]; read-out: LIC (lipoxidase-inhibiting capacity, % inhibition)) was 0%.
With Dimyrcetol the “LIC (lipoxidase-inhibiting capacity, % inhibition)” value [3] was 14%.
In the case of Tetrahydromuguol, the “LIC (lipoxidase-inhibiting capacity, % inhibition)” value [3] is reported as 24%.
With i-Nonyl acetate the “LIC (lipoxidase-inhibiting capacity, % inhibition)” value [3] was 50%.
For i-Nonyl formate, the “LIC (lipoxidase-inhibiting capacity, % inhibition)” value [3] was 19%.

From patent publication US4322308A, “Detergent product containing deodorant compositions” (priority 1977, dated 1982)
